Data: patent publication US11795199B2, “Peptide targeting Mycobacterium tuberculosis toxin-antitoxin system and use thereof” (Seoul National University R&DB Foundation, priority 2017, dated 2023)

Columns and labels:
[1] = target: T1, VapBC26 protein complex containing Y51E (Mycobacterium tuberculosis, UniProt O53778, Y51E)
[2] = target: T1, VapBC26 protein complex containing Y51E; remark: listed apart in the source

DAELAVLRELAG [mimetic peptide for VapC26 α4]
fluorescence increase in Y51E [1]: 15.07%
calculated area corresponding to VapC26, larger than with the native protein complex [2]: 15.42%
